IC50 data for 25 molecules are collected here from patent US9718828B2 (MERCK SHARP & DOHME CORP., priority 2011, dated 2017).

As usually defined, the IC50 is the concentration that gives 50% inhibition.

Where a name gives a salt, the structure may show the parent alone.

The target in the first assay is hBTK (full-length BTK, 6HIS-tag cleaved) (Homo sapiens (Human), UniProt Q06187). The experiment in a line: BTK enzymatic activity, LANCE TR-FRET assay (Assay Method C). Format: biochemical. To be noted: LANCE TR-FRET, 50 pM hBTK, 25 μM ATP; class 100-1000 is given as ≧100 nM-<1 μM; read-out: IC50 Btk activity values - Assay Method C.
hBTK (full-length BTK, 6HIS-tag cleaved), sequence (Q06187 whole entry): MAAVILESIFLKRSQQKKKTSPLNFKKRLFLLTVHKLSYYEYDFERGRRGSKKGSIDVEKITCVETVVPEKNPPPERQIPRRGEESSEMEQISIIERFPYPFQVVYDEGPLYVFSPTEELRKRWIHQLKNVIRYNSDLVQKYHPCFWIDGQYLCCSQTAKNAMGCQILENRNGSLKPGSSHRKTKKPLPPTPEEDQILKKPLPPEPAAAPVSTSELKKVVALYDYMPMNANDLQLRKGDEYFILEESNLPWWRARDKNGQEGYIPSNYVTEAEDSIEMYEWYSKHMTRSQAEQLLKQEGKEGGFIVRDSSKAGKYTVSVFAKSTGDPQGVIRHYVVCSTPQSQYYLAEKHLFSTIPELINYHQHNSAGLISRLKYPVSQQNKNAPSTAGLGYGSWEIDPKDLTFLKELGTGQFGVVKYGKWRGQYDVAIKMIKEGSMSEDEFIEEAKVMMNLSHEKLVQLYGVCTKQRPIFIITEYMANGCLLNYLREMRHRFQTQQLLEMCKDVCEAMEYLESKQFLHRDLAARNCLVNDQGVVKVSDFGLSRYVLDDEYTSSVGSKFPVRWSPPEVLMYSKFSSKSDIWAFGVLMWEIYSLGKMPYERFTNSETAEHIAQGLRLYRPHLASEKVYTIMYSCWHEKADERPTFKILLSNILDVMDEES
Regarding `CC1(C(=O)N2CCC[C@@H](c3nc(-c4ccc(C(=O)Nc5ccc(Cl)cn5)cc4)c4c(N)nccn34)C2)COC1` [Example 358, 4-(8-amino-3-{(3R)-1-[(3-methyloxetan-3-yl)carbonyl]piperidin-3-yl}imidazo[1,5-a]pyrazin-1-yl)-N-(5-chloropyridin-2-yl)benzamide], the IC50 was less than 10 nM. As to `Cc1ccnc(NC(=O)c2ccc(-c3nc([C@@H]4CCCN(C(=O)C5(C)COC5)C4)n4c(Cl)cnc(N)c34)c(F)c2)c1` [Example 448, 4-(8-amino-5-chloro-3-{(3R)-1-[(3-methyloxetan-3-yl)carbonyl]piperidin-3-yl}imidazo[1,5-a]pyrazin-1-yl)-3-fluoro-N-(4-methylpyridin-2-yl)benzamide], the half-inhibitory concentration (IC50) was less than 10 nM.

Turning to `Cc1ccnc(NC(=O)c2ccc(-c3nc([C@H]4CC[C@H](C(F)(F)F)N(C(=O)C5CC5)C4)n4ccnc(N)c34)cc2)c1` [Example 425, 4-{8-amino-3-[(3S,6R)-1-(cyclopropylcarbonyl)-6-(trifluoromethyl)piperidin-3-yl]imidazo[1,5-a]pyrazin-1-yl}-N-(4-methylpyridin-2-yl)benzamide], the IC50 is less than 10 nM. Take `COCC(=O)N1CCO[C@@H](c2nc(-c3ccc(C(=O)Nc4cc(C(F)(F)F)ccn4)cc3)c3c(N)ncc(Cl)n23)C1` [Example 528, 4-{8-amino-5-chloro-3-[(2R)-4-(methoxyacetyl)morpholin-2-yl]imidazo[1,5-a]pyrazin-1-yl}-N-[4-(trifluoromethyl)pyridin-2-yl]benzamide]: the IC50 is less than 10 nM. On the same count and under the same terms, the value for `Nc1nccn2c([C@@H]3CCCN(C(=O)c4cnsc4)C3)nc(-c3ccc(C(=O)Nc4cc(C(F)(F)F)ccn4)cc3)c12` [Example 333, 4-{8-amino-3-[(3R)-1-(isothiazol-4-ylcarbonyl)piperidin-3-yl]imidazo[1,5-a]pyrazin-1-yl}-N-[4-(trifluoromethyl)pyridin-2-yl]benzamide] was less than 10 nM. In the case of `COc1ccnc(NC(=O)c2ccc(-c3nc([C@@H]4CCCN(C(=O)C5(C)COC5)C4)n4c(C)cnc(N)c34)cc2)c1` [Example 459, 4-(8-amino-5-methyl-3-{(3R)-1-[(3-methyloxetan-3-yl)carbonyl]piperidin-3-yl}imidazo[1,5-a]pyrazin-1-yl)-N-(4-methoxypyridin-2-yl)benzamide], the half-inhibitory concentration (IC50) was less than 10 nM. Turning to `Cc1cnc(NC(=O)c2ccc(-c3nc([C@@H]4CCCN(C(=O)C5(C)COC5)C4)n4ccnc(N)c34)cc2)s1` [Example 366, 4-(8-amino-3-{(3R)-1-[(3-methyloxetan-3-yl)carbonyl]piperidin-3-yl}imidazo[1,5-a]pyrazin-1-yl)-N-(5-methyl-1,3-thiazol-2-yl)benzamide], the IC50 was less than 10 nM. Still for that read-out and setting: under `Cn1cc(CN2C[C@H](c3nc(-c4ccc(C(=O)Nc5cc(C(F)(F)F)ccn5)cc4)c4c(N)nccn34)OC[C@@H]2CO)cn1` [Example 548, 4-(8-amino-3-{(2R,5S)-5-(hydroxymethyl)-4-[(1-methyl-1H-pyrazol-4-yl)methyl]morpholin-2-yl}imidazo[1,5-a]pyrazin-1-yl)-N-[4-(trifluoromethyl)pyridin-2-yl]benzamide, TFA salt] stands less than 10 nM; under `Nc1ncc(Cl)n2c([C@H]3CN(CC(F)(F)F)CCO3)nc(-c3ccc(C(=O)Nc4cc(C(F)(F)F)ccn4)cc3)c12` [Example 526, 4-{8-amino-5-chloro-3-[(2R)-4-(2,2,2-trifluoroethyl)morpholin-2-yl]imidazo[1,5-a]pyrazin-1-yl}-N-[4-(trifluoromethyl)pyridin-2-yl]benzamide], less than 10 nM; under `CCN1CCO[C@H](c2nc(-c3ccc(C(=O)Nc4cc(C(F)(F)F)ccn4)cc3)c3c(N)nccn23)C1` [Example 534, 4-{8-amino-3-[(2S)-4-ethylmorpholin-2-yl]imidazo[1,5-a]pyrazin-1-yl}-N-[4-(trifluoromethyl)pyridin-2-yl]benzamide], 10 to 100 nM.

As to `COCCC(=O)N1CCC[C@@H](c2nc(-c3ccc(C(=O)Nc4cc(C(F)(F)F)ccn4)cc3F)c3c(N)nccn23)C1` [Example 576, 4-{8-amino-3-[(3R)-1-(3-methoxypropanoyl)piperidin-3-yl]imidazo[1,5-a]pyrazin-1-yl}-3-fluoro-N-[4-(trifluoromethyl)pyridin-2-yl]benzamide, TFA salt], the half-inhibitory concentration (IC50) is less than 10 nM. The same measure, in the same setting: under `CCn1ncc2c1CCC[C@H]2n1nc(-c2ccc(C(=O)Nc3cc(C(F)(F)F)ccn3)cc2)c2c(N)ncnc21` [Example 559, 4-{4-amino-1-[(4R)-1-ethyl-4,5,6,7-tetrahydro-1H-indazol-4-yl]-1H-pyrazolo[3,4-d]pyrimidin-3-yl}-N-[4-(trifluoromethyl)pyridin-2-yl]benzamide, TFA salt] stands less than 10 nM. The same measure, in the same setting: the value for `CCN1C[C@@H](c2nc(-c3ccc(C(=O)Nc4ccccn4)cc3)c3c(N)nccn23)CC[C@@H]1C(F)(F)F` [Example 408, 4-{8-amino-3-[(3S,6R)-1-ethyl-6-(trifluoromethyl)piperidin-3-yl]imidazo[1,5-a]pyrazin-1-yl}-N-pyridin-2-ylbenzamide] was less than 10 nM; that for `CC1(C(=O)N2CCC[C@@H](c3nc(-c4ccc(C(=O)Nc5cc(C#N)ccn5)cc4)c4c(N)ncc(Cl)n34)C2)COC1` [Example 445, 4-(8-amino-5-chloro-3-{(3R)-1-[(3-methyloxetan-3-yl)carbonyl]piperidin-3-yl}imidazo[1,5-a]pyrazin-1-yl)-N-(4-cyanopyridin-2-yl)benzamide] was less than 10 nM. Same read-out and setting: the value for `Cc1cnc(N)c2c(-c3ccc(C(=O)Nc4cc(C(F)(F)F)ccn4)cc3F)nc([C@H]3CN(C(=O)C4(C)COC4)CCO3)n12` [Example 514, 4-(8-amino-5-methyl-3-{(2R)-4-[(3-methyloxetan-3-yl)carbonyl]morpholin-2-yl}imidazo[1,5-a]pyrazin-1-yl)-3-fluoro-N-[4-(trifluoromethyl)pyridin-2-yl]benzamide] was less than 10 nM; that for `CC(=O)N1C[C@@H](c2nc(-c3ccc(C(=O)Nc4cc(C(F)(F)F)ccn4)cc3)c3c(N)nccn23)CC[C@@H]1C(F)(F)F` [Example 427, 4-{3-[(3S,6R)-1-acetyl-6-(trifluoromethyl)piperidin-3-yl]-8-aminoimidazo[1,5-a]pyrazin-1-yl}-N-[4-(trifluoromethyl)pyridin-2-yl]benzamide] was less than 10 nM. On to `Cc1cnc(N)c2c(-c3ccc(C(=O)Nc4cc(C(F)(F)F)ccn4)cc3)nc([C@H]3CN(C(=O)[C@@H](C)O)CCO3)n12` [Example 544, 4-(8-amino-3-{(2R)-4-[(2R)-2-hydroxypropanoyl]morpholin-2-yl}-5-methylimidazo[1,5-a]pyrazin-1-yl)-N-[4-(trifluoromethyl)pyridin-2-yl]benzamide], for which the IC50 is less than 10 nM.

Take `Nc1nccn2c([C@@H]3CCCN(C(=O)C4(O)CC4)C3)nc(-c3ccc(C(=O)Nc4cc(C(F)(F)F)ccn4)cc3)c12` [Example 342, 4-(8-amino-3-{(3R)-1-[(1-hydroxycyclopropyl)carbonyl]piperidin-3-yl}imidazo[1,5-a]pyrazin-1-yl)-N-[4-(trifluoromethyl)pyridin-2-yl]benzamide]: the IC50 was less than 10 nM. Same read-out and setting: under `Nc1ncnc2c1c(-c1ccc(C(=O)Nc3cc(C(F)(F)F)ccn3)cc1)nn2[C@H]1CCCc2[nH]ncc21` [Example 555, 4-{4-amino-1-[(4S)-4,5,6,7-tetrahydro-1H-indazol-4-yl]-1H-pyrazolo[3,4-d]pyrimidin-3-yl}-N-[4-(trifluoromethyl)pyridin-2-yl]benzamide, TFA salt] stands less than 10 nM; under `CC(C)N1CC(C(=O)N2CCC[C@@H](c3nc(-c4ccc(C(=O)Nc5cc(C(F)(F)F)ccn5)cc4)c4c(N)nccn34)C2)C1` [Example 329, 4-{8-amino-3-[(3R)-1-{[1-(1-methylethyl)azetidin-3-yl]carbonyl}piperidin-3-yl]imidazo[1,5-a]pyrazin-1-yl}-N-[4-(trifluoromethyl)pyridin-2-yl]benzamide], less than 10 nM; under `CCn1cc2c(n1)CCC[C@@H]2n1nc(-c2ccc(C(=O)Nc3cc(C(F)(F)F)ccn3)cc2)c2c(N)ncnc21` [Example 560, 4-{4-amino-1-[(4S)-2-ethyl-4,5,6,7-tetrahydro-2H-indazol-4-yl]-1H-pyrazolo[3,4-d]pyrimidin-3-yl}-N-[4-(trifluoromethyl)pyridin-2-yl]benzamide, TFA salt], 10 to 100 nM.

On to `Nc1nccn2c([C@@H]3CCCN(C(=O)C4CC4(F)F)C3)nc(-c3ccc(C(=O)Nc4cc(C(F)(F)F)ccn4)cc3)c12` (stereo partly drawn) [Example 344, 4-(8-amino-3-{(3R)-1-[(2,2-difluorocyclopropyl)carbonyl]piperidin-3-yl}imidazo[1,5-a]pyrazin-1-yl)-N-[4-(trifluoromethyl)pyridin-2-yl]benzamide], for which the concentration for half-maximal inhibition (IC50) is less than 10 nM.

Consider `Nc1nccn2c([C@@H]3CCCN(C(=O)CC(F)(F)F)C3)nc(-c3ccc(C(=O)Nc4cc(C(F)(F)F)ccn4)cc3)c12` [Example 332, 4-{8-amino-3-[(3R)-1-(3,3,3-trifluoropropanoyl)piperidin-3-yl]imidazo[1,5-a]pyrazin-1-yl}-N-[4-(trifluoromethyl)pyridin-2-yl]benzamide], for which the IC50 is less than 10 nM. The same measure, in the same setting: under `Nc1ncnc2c1c(-c1ccc(C(=O)Nc3cc(C(F)(F)F)ccn3)cc1)nn2[C@H]1CCCc2c1cnn2CCO` [Example 563, 4-{4-amino-1-[(4S)-1-(2-hydroxyethyl)-4,5,6,7-tetrahydro-1H-indazol-4-yl]-1H-pyrazolo[3,4-d]pyrimidin-3-yl}-N-[4-(trifluoromethyl)pyridin-2-yl]benzamide, TFA salt] stands less than 10 nM; under `CCC(=O)N1CCC[C@@H](c2nc(-c3ccc(C(=O)Nc4cc(C(F)(F)F)ccn4)cc3OC)c3c(N)nccn23)C1` [Example 490, 4-{8-amino-3-[(3R)-1-propanoylpiperidin-3-yl]imidazo[1,5-a]pyrazin-1-yl}-3-methoxy-N-[4-(trifluoromethyl)pyridin-2-yl]benzamide], less than 10 nM.

Staying with this assay, now noted: Table D; Assay Method C (LANCE TR-FRET), 50 pM hBTK, 25 μM ATP; read-out: IC50 BTK activity value.
For the molecule `COCC(=O)N1CCO[C@@H](c2nc(-c3ccc(C(=O)Nc4cc(C(F)(F)F)ccn4)cc3)c3c(N)ncc(Cl)n23)C1` [Example 528, 4-{8-amino-5-chloro-3-[(2R)-4-(methoxyacetyl)morpholin-2-yl]imidazo[1,5-a]pyrazin-1-yl}-N-[4-(trifluoromethyl)pyridin-2-yl]benzamide], the IC50 was found to be 0.892 nM.
